Test results published in the NIST ThermoML archive (doi:10.1021/je300673m).

Assay: mn = molality of the nth substance listed, in mol/kg
Conditions: 101 kPa, Liquid

O=P([O-])([O-])O.[K+].[K+] [dipotassium hydrogen phosphate] + O
viscosity [mPa·s]
Conditions | 288.15 K | 298.15 K | 308.15 K | 318.15 K
m1 = 0.2 | 1.201 | 0.953 | 0.781 | 0.659
m1 = 0.4 | 1.329 | 1.057 | 0.867 | 0.73
m1 = 0.6 | 1.409 | 1.118 | 0.916 | 0.77
m1 = 0.8 | 1.534 | 1.217 | 0.997 | 0.833
